Literature values as cited in patent US9187467B2, “2-phenyl benzothiazole linked imidazole compounds as potential anticancer agents and process for the preparation thereof” (Council of Scientific and Industrial Research, priority 2012, dated 2015).

Key:
Set-up in all cases: unit not given here
[1] = tested on: MOLT-4; details: previous compounds (U.S. Pat. No. 7,384,966); cited from earlier work
[2] = tested on: OVCAR-3; details: previous compounds (U.S. Pat. No. 7,384,966); cited from earlier work
[3] = tested on: M14; details: previous compounds (U.S. Pat. No. 7,384,966); cited from earlier work
[4] = tested on: SNB-75; details: previous compounds (U.S. Pat. No. 7,384,966); cited from earlier work
[5] = tested on: SF-268; details: previous compounds (U.S. Pat. No. 7,384,966); cited from earlier work
[6] = tested on: U251; details: previous compounds (U.S. Pat. No. 7,384,966); cited from earlier work
[7] = tested on: CAKI-1; details: previous compounds (U.S. Pat. No. 7,384,966); cited from earlier work
[8] = tested on: BT-549; details: previous compounds (U.S. Pat. No. 7,384,966); cited from earlier work
[9] = tested on: EKVX; details: previous compounds (U.S. Pat. No. 7,384,966); cited from earlier work
[10] = tested on: UO-31; details: previous compounds (U.S. Pat. No. 7,384,966); cited from earlier work
[11] = tested on: OVCAR-8; details: previous compounds (U.S. Pat. No. 7,384,966); cited from earlier work
[12] = tested on: HOP-62; details: previous compounds (U.S. Pat. No. 7,384,966); cited from earlier work
[13] = tested on: LOX IMVI; details: previous compounds (U.S. Pat. No. 7,384,966); cited from earlier work
[14] = tested on: MALME-3M; details: previous compounds (U.S. Pat. No. 7,384,966); cited from earlier work
[15] = tested on: SNB-19; details: previous compounds (U.S. Pat. No. 7,384,966); cited from earlier work
[16] = tested on: 786-0; details: previous compounds (U.S. Pat. No. 7,384,966); cited from earlier work
[17] = tested on: NCI/ADR-RES; details: listed as head printed RES (second line of NCI/ADR-RES); previous compounds (U.S. Pat. No. 7,384,966); cited from earlier work
[18] = tested on: HL-60 (TB); details: previous compounds (U.S. Pat. No. 7,384,966); cited from earlier work
[19] = tested on: SF-539; details: previous compounds (U.S. Pat. No. 7,384,966); cited from earlier work
[20] = tested on: NCI-H23; details: previous compounds (U.S. Pat. No. 7,384,966); cited from earlier work
[21] = tested on: A549/ATCC; details: previous compounds (U.S. Pat. No. 7,384,966); cited from earlier work
[22] = tested on: SN12C; details: previous compounds (U.S. Pat. No. 7,384,966); cited from earlier work
[23] = tested on: MDA-MB-231/ATCC; details: previous compounds (U.S. Pat. No. 7,384,966); cited from earlier work
[24] = tested on: UACC-62; details: previous compounds (U.S. Pat. No. 7,384,966); cited from earlier work
[25] = tested on: UACC-257; details: previous compounds (U.S. Pat. No. 7,384,966); cited from earlier work
[26] = tested on: HS 578T; details: previous compounds (U.S. Pat. No. 7,384,966); cited from earlier work
[27] = tested on: SW-620; details: previous compounds (U.S. Pat. No. 7,384,966); cited from earlier work
[28] = tested on: SF-295; details: previous compounds (U.S. Pat. No. 7,384,966); cited from earlier work
[29] = tested on: PC-3; details: previous compounds (U.S. Pat. No. 7,384,966); cited from earlier work
[30] = tested on: DU-145; details: previous compounds (U.S. Pat. No. 7,384,966); cited from earlier work
[31] = tested on: ACHN; details: previous compounds (U.S. Pat. No. 7,384,966); cited from earlier work
[32] = tested on: NCI-H522; details: previous compounds (U.S. Pat. No. 7,384,966); cited from earlier work
[33] = tested on: CCRF-CEM; details: previous compounds (U.S. Pat. No. 7,384,966); cited from earlier work
[34] = tested on: K-562; details: previous compounds (U.S. Pat. No. 7,384,966); cited from earlier work

Measured: Log10GI50

COc1ccc(-c2nc3ccc(F)cc3s2)cc1OC [Compound 3d]
>−4.0: all assays above
